The subject of the assay is Cystobacter velatus MCy8071. The assay can be described thus: Antibiotic resistance of the producer strain. In kind it is cell-based. The settings on record: final concentration of all antibiotics 50 μg ml^−1. As for the experimental part:
MCy8071 is resistant against the following antibiotics: ampicillin, gentamycin, hygromycin, polymycin, bacitracin, spectinomycin, neomycin, and fusidinic acid. Weak growth is possible with cephalosporin and kasugamycin and no growth is possible with thiostrepton, trimethoprin, kanamycin, and oxytetracycline (final concentration of all antibiotics was adjusted to 50 μg ml^−1).

Bridge positions count the residues as written; N and C are the ends. Square brackets hold non-standard residues; d marks the D form. Peptide text beside a SMILES is read from it. * marks the point of attachment. Ileψ(thiazoline)Cys = CC[C@H](C)[C@H](N)C1=N[C@H](C(=O)*)CS1; dOrn = NCCC[C@@H](N)C(=O)O

As for `CC1(C)S[C@@H]2[C@H](NC(=O)[C@H](N)c3ccccc3)C(=O)N2[C@H]1C(=O)O` [ampicillin], the “growth of strain MCy8071 in presence of the antibiotic” value (shortened to “growth of strain MCy8071”) is “resistant”.
As to neomycin, the “growth of strain MCy8071” value was “resistant”.
As to polymycin, the “growth of strain MCy8071” value is on record as “resistant”.
In the case of `CC[C@H](C)[C@H](N)C1=N[C@H](C(=O)N[C@@H](CC(C)C)C(=O)N[C@H](CCC(=O)O)C(=O)N[C@H](C(=O)N[C@H]2CCCCNC(=O)[C@H](CC(N)=O)NC(=O)[C@@H](CC(=O)O)NC(=O)[C@H](Cc3cnc[nH]3)NC(=O)[C@@H](Cc3ccccc3)NC(=O)[C@H]([C@@H](C)CC)NC(=O)[C@@H](CCCN)NC2=O)[C@@H](C)CC)CS1` [bacitracin] ({Ileψ(thiazoline)Cys}-L[dE]IK[dOrn]I[dF]H[dD]N; lactam 4-C) it was “resistant”; in that of `C=C(NC(=O)C(=C)NC(=O)c1csc(C2=N[C@@H]3c4csc(n4)[C@H]4NC(=O)c5csc(n5)[C@H]([C@](C)(O)[C@@H](C)O)NC(=O)[C@H]5CSC(=N5)/C(=C/C)NC(=O)[C@H]([C@@H](C)O)NC(=O)c5csc(n5)[C@]3(CC2)NC(=O)[C@H](C)NC(=O)C(=C)NC(=O)[C@H](C)NC(=O)[C@H]([C@@H](C)CC)N[C@@H]2C=Cc3c([C@H](C)O)cc(nc3[C@H]2O)C(=O)O[C@@H]4C)n1)C(N)=O` [thiostrepton], “no growth”.
With `COc1cc(Cc2cnc(N)nc2N)cc(OC)c1OC` [trimethoprin], the “growth of strain MCy8071” value is “no growth”.
As to `C[C@H]1O[C@H](O[C@H]2[C@H](O)[C@@H](O)[C@@H](O)[C@H](O)[C@@H]2O)[C@@H](N)C[C@@H]1NC(=N)C(=O)O` [kasugamycin], the “growth of strain MCy8071” value is “Weak growth”.
For the compound `CC(=O)O[C@H]1C[C@@]2(C)[C@@H](C[C@@H](O)[C@H]3[C@@]4(C)CC[C@@H](O)[C@@H](C)[C@@H]4CC[C@@]32C)/C1=C(\CCC=C(C)C)C(=O)O` [fusidinic acid], the “growth of strain MCy8071” value is “resistant”.
As to `CN[C@@H]1[C@H](O)[C@H](NC)[C@H]2O[C@@]3(O)C(=O)C[C@@H](C)O[C@H]3O[C@@H]2[C@H]1O` [spectinomycin], the “growth of strain MCy8071” value is reported as “resistant”.
Take gentamycin: the “growth of strain MCy8071” value is reported as “resistant”.

The values are drawn from patent US11225503B2, “Crystobactamides” (HELMHOLTZ-ZENTRUM FÜR INFEKTIONSFORSCHUNG GMBH, priority 2013, dated 2022).
